{"source": "patent US20060026702A1", "about": "“Phosphoinositide 3-kinase mediated inhibition of GPCRs” (DUKE UNIVERSITY, priority 2002, published 2006)", "key": {"β2AR": {"test_system": "β2AR", "assay": "β2AR sequestration in HEK-293 cells by 125I-Cyanopindolol binding", "type": "cell-based", "conditions": "1 μM isoproterenol; LY294002 100 μM 15 min before", "description": "Determination of β2AR Sequestration in HEK-293 Cells by ^125I-Cyanopindolol (CYP) Binding—β2AR sequestration was performed as previously described. Briefly, HEK-293 cells were plated at a density of 2.5×10^6 cells/dish and transfected the following day with plasmids containing either the β2AR (150-250 ng), β2AR (250 ng) and HEAT domain (4 μg), PI3Kγ (4.0 μg) or ΔPI3Kγ (4.0 μg) cDNAs. Twelve hours after transfection cells were split into six well Falcon plates at a density of 750,000 cells/well. […] To determine the amount of internalized receptor, 100 μl aliquots of whole cells were added to 150 μl of binding buffer (75 mM Tris-HCl, 10 mM MgCl2, 5 mM EDTA (pH 7.5)). Total binding was determined in the presence of 175 pM ^125I-CYP alone, the number of internalized receptors were determined by using 175 pM ^125I-CYP plus 100 nM CGP12177, and non-specific binding was determined using 175 pM ^125I-CYP plus 1 μM propranolol. Sequestration was calculated as the ratio of (specific receptor binding of ^125I-CYP in the presence of CGP12177)/(specific receptor binding of ^125I-CYP in the absence of CGP12177)."}, "PI3K": {"biological_target": "T1, PI3K (Homo sapiens, UniProt P48736, DEL30-30/Q459R)", "T1 construct": "expressed in transfected cells; host or cells: NIH-3T3", "T1 sequence (P48736 with tags, fused parts or gaps DEL30-30/Q459R)": "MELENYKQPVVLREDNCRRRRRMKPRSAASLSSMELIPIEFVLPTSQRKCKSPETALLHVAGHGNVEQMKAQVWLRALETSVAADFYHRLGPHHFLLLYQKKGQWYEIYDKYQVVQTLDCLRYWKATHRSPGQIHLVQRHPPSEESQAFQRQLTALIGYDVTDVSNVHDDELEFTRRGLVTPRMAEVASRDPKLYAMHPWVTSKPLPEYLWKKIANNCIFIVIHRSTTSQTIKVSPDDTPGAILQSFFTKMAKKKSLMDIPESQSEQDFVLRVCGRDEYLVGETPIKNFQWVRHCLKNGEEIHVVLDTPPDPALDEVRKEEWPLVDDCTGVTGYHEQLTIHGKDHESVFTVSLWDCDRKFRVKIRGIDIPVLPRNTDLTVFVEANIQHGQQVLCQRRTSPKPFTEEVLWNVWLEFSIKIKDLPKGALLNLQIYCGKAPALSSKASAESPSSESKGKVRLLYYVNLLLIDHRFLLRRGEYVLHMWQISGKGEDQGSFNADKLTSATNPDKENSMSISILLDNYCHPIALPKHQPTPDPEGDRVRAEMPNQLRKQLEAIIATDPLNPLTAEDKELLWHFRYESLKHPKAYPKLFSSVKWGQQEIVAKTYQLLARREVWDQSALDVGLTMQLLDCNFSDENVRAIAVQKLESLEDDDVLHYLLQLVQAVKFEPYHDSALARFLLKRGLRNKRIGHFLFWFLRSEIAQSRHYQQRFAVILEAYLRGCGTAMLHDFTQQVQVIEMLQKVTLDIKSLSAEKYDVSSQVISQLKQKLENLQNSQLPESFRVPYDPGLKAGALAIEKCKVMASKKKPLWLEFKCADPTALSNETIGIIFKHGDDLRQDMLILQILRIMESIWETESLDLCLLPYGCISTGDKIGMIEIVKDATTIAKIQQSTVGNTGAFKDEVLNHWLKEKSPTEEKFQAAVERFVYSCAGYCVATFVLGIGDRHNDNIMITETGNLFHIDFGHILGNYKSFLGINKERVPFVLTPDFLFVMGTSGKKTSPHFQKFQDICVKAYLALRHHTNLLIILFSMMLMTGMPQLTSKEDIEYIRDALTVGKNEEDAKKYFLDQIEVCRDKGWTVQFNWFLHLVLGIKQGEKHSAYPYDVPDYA", "assay": "βARK1 associated PI3K activity (lipid kinase assay) in transfected NIH-3T3 cells", "type": "cell-based, Mouse", "conditions": "10 μM isoproterenol, 2 min; cells co-transfected with βARK1 and HA-PI3Kγ", "experimental": "Cell Culture—Mouse NIH-3T3 and HEK293 cells were maintained in either Iscoves modified Dulbecco's medium or minimal essential medium (MEM) supplemented with 10% fetal bovine serum and 1:100 penicillin-streptomycin (10,000 U/ml) at 37° C. Cells were seeded at a density of ˜1-3×10^5 cells/35 mm^2 dish and at 70-80% confluence were transiently transfected using the transfection reagent FUGENE6 (ROCHE) or calcium phosphate precipitation. Cells were harvested 24 hours after transfection, re-plated in triplicate, allowed to grow overnight and serum starved for 2-4 hours before agonist stimulation.\nCytosolic and Membrane Fractionation—Cell monolayers were scraped in 1 ml of buffer containing 25 mM Tris-HCl (pH 7.5), 5 mM EDTA, 5 mM EGTA, 1 mM phenylmethylsulfonyl fluoride, 2 μg/ml each of leupeptin and aprotinin and disrupted further by using Dounce homogenizer. Intact cells and nuclei were removed by-centrifugation at 1,000×g for 5 min. The collected supernatant was further subject to a centrifugation at 38,000×g for 25 min. The pellet was resuspended in lysis buffer (1% Nonidet P-40, 10% glycerol, 137 mM NaCl, 20 mM Tris-Cl (ph 7.4), 1 mM phenylmethylsulfonyl fluoride, 20 mM NaF, 1 mM sodium pyrophosphate, 1 mM sodium orthovanadate and 2 μg/ml each of aprotinin and leupeptin) and used as membrane fraction and the supernatant was diluted in lysis buffer and used as the cytosolic fraction.\nLipid Kinase Assays—Cells were lysed in lysis buffer and 2 mg cytosolic extract was used for immunoprecipitation with either the C5/1 monoclonal antibody directed against βARK1, the anti-FLAG M2 monoclonal antibody (Sigma) or antibodies to p110γ, or p110β (Santa Cruz Biotechnology) and protein G-agarose. Sedimented beads were then washed once with 1 ml of lysis buffer, thrice with 1 ml of phosphate-buffered saline (1× phosphate-buffered saline, 1% NP-40 and 100 μM sodium orthovanadate), thrice with 1 ml of Tris/LiCl (100 mM Tris-HCl (pH 7.4), 5 mM LiCl and 100 μM sodium orthovanadate) and twice with TNE (10 mM Tris Cl (pH 7.4), 150 mM NaCl, 5 mM EDTA and 100 μM sodium orthovanadate). Samples were then resuspended in 50 ml of TNE and 10 μl of 100 mM MgCl2 was added to each sample. The substrate, phosphatidylinositol (PI, Avanti), was prepared by drying 50 μl of the 10 mg/ml stock (PI in chloroform) in an eppendorf tube with a stream of air and adding 250 μl of TE (10 mM Tris Cl (pH 7.4) and 1 mM EDTA). The PI was then suspended by sonication in an ice bath for 3 minutes. 10 p, of the PI solution and 11 μl of ATP solution (440 μM cold ATP and 1 μCi/μl of [γ-32P]ATP) were added to each sample. […] Autoradiography of dried plates was used to detect signals, and PIP was quantified by phosphorimaging. […] Values are expressed as fold increase/decrease relative to wild-type/control."}, "β2AR complex": {"test_system": "β2AR complex", "assay": "Recruitment of AP-2 adaptin and clathrin to the agonist-stimulated β2AR complex (immunoprecipitation, immunoblot)", "type": "cell-based", "conditions": "saponin-permeabilized cells, isoproterenol 5 min; compared to similar concentration of Ptdlns (4,5) P2", "description": "Immunoblotting and Detection—Immunoblotting and detection of PI3K, βARK1, HA-PI3Kγ, HA-ΔPI3Kγ, Myc-PI3Kα, FLAG-HEAT, PI3KΔHEAT-HA, FLAG-β2AR, HA-β2AR, β-adaptin and clathrin was carried out as previously described. Immunoprecipitating antibodies were added to 500 μg of cell lysate in lysis buffer followed by the addition of 35 μl of 1:1 Protein A- or G-agarose. Samples were rocked overnight at 4° C. then centrifuged at 12,000×g for 5 min. Immunoprecipitates were washed twice with lysis buffer, twice with 1×PBS and resuspended in 1×SDS-gel loading buffer. Proteins were resolved by SDS-polyacrylamide gel electrophoresis and blotted on to PVDF membrane (Bio-Rad). Blots were incubated with antibodies recognizing PI3K, Myc (Santa-Cruz), β-adaptin, clathrin heavy chain (BD Transduction Laboratories), HA (Roche Molecular Biochemicals) and FLAG (Sigma) at 1:2000 dilution and the βARK1 monoclonal antibody at 1:10,000 dilution. Blots were subsequently incubated with appropriate secondary antibody (1:2000 dilution) conjugated to horseradish peroxidase (Amersham Pharmacia Biotech) and detection was carried out using enhanced chemiluminescence. […]\nThe present inventors determined that βARK1-mediated localization of PI3K within the activated receptor complex is responsible for the generation of D-3 phosphatidylinositols necessary for the efficient recruitment of adaptin to the P2AR complex. […]"}}, "data": [{"compound": "O=c1cc(N2CCOCC2)oc2c(-c3ccccc3)cccc12", "note": "[LY294002, reference compound]", "values": [{"measurement": "reduction in sequestration", "setting": "β2AR", "value": 50, "unit": "%"}]}, {"compound": "CC(C)NCC(O)c1ccc(O)c(O)c1", "note": "(stereo not shown) [isoproterenol, reference compound]", "values": [{"measurement": "βARK1 associated PI3K activity in the cytosolic fraction after agonist", "setting": "PI3K", "value": "little change"}, {"measurement": "βARK1 associated PI3K activity in the membrane fraction after agonist", "setting": "PI3K", "value": "significant increase"}]}, {"compound": "phosphatidylinositol 3,4,5-triphosphate [Ptdlns (3,4,5) P3, reference compound]", "values": [{"measurement": "efficiency of recruitment of adaptin to the receptor", "setting": "β2AR complex", "value": "significantly enhanced"}]}]}
